Source: US10842152B2, “Isothiazolo-based bicycles, processes for their preparation and their use as herbicides and/or plant growth regulators” (Bayer CropScience Aktiengesellschaft, priority 2017, dated 2020)

Legend:
Type in all cases: in vivo
Viola tricolor [1] = experiment: Herbicidal effect pre-emergence; conditions: 320 g/ha, visual grading after ca. 3 weeks vs untreated controls
Source text: (§1) Herbicidal activities of the compounds of the formulae (G1) or (G2) according to the invention were investigated against the following harmful plants: • ALOMY=Alopecurus myosuroides • ECHCG=Echinochloa crus-galli • SETVI=Setaria viridis • ABUTH=Abutilon theophrasti • AMARE=Amaranthus retroflexus • PHBPU=Pharbitis purpurea • POLCO=Polygonum convolvulus (=Fallopia convolvulus) • STEME=Stellaria media • VIOTR=Viola tricolor
(§2) Seeds of mono- and dicotyledonous weed plants and crop plants are sown in wood-fiber pots in sandy loam and covered with soil. The compounds according to the invention, formulated in the form of wettable powders (WP) or as emulsifiable concentrates (EC), are then applied to the surface of the covering soil as aqueous suspension or emulsion, with the addition of 0.5% of an additive, at an application rate of 600 l of water/ha (converted).
(§3) Following treatment, the pots are placed in a greenhouse and kept under optimum growth conditions for the test plants. The visual grading of the damage to the test plants is carried out after ca. 3 weeks in comparison to untreated controls (herbicidal effect in percent (%): 100% effect=plants have died off, 0% effect=as control plants).

Setaria viridis [2] = experiment: Herbicidal effect pre-emergence; conditions: 320 g/ha, visual grading after ca. 3 weeks vs untreated controls
Source text: as §1, §2, §3

Amaranthus retroflexus [3] = experiment: Herbicidal effect pre-emergence; conditions: 320 g/ha, visual grading after ca. 3 weeks vs untreated controls
Source text: as §1, §2, §3

Viola tricolor [4] = experiment: Herbicidal effect post-emergence; conditions: 320 g/ha, visual grading after ca. 3 weeks (Table 9)
Source text: as §1
(§4) Seeds of mono- and dicotyledonous weed plants and crop plants are sown in wood-fiber pots in sandy loam, covered with soil and grown in a greenhouse under controlled growth conditions. 2 to 3 weeks after sowing, the test plants are sprayed in the single-leaf stage. The compounds according to the invention, formulated in form of wettable powders (WP) or as emulsifiable concentrates (EC), are then sprayed onto the green plant parts as aqueous suspension or emulsion, with the addition of 0.5% of an additive, at an application rate of 600 l of water/ha (converted). After the test plants had been in the greenhouse for ca. 3 weeks under optimum growth conditions, the effect of the preparations is assessed visually in comparison with untreated controls (herbicidal effect in percent (%): 100% effect=plants have died off, 0% effect=as control plants).

Setaria viridis [5] = experiment: Herbicidal effect post-emergence; conditions: 320 g/ha, visual grading after ca. 3 weeks (Table 9)
Source text: as §1, §4

Amaranthus retroflexus [6] = experiment: Herbicidal effect post-emergence; conditions: 320 g/ha, visual grading after ca. 3 weeks (Table 9)
Source text: as §1, §4

Compound	herbicidal effect VIOTR (Viola tricolor [1]) [%]	herbicidal effect SETVI (Setaria viridis [2]) [%]	herbicidal effect AMARE (Amaranthus retroflexus [3]) [%]	herbicidal effect VIOTR (Viola tricolor [4]) [%]	herbicidal effect SETVI (Setaria viridis [5]) [%]	herbicidal effect AMARE (Amaranthus retroflexus [6]) [%]
Nc1nsc2c(=O)n(CC3CCCCC3Cl)cc(Cl)c12 (racemic) [Example I-155]	100	100	80			
O=C(Nc1nsc2c(=O)n(CC3CCCCC3Cl)cc(Cl)c12)C(F)F (racemic) [Example I-159]	100	100	100			
CCC(=O)Nc1nsc2c(=O)n(CC3CCCCC3Cl)cc(Cl)c12 (racemic) [Example I-173]	100	100	90			
CCc1cc2c(N)nsc2c(=O)n1CC1CCCCC1 [Example I-020]				100	100	100
CC(C)c1cc2c(NC(=O)C(F)(F)C(F)(F)F)nsc2c(=O)n1CC1CCCCC1 [Example I-021, N-[6-(cyclohexylmethyl)-5-isopropyl-7-oxo-isothiazolo[5,4-c]pyridin-3-yl]-2,2,3,3,3-pentafluoro-propanamide]	100	90	100	80	100	100
O=C(Nc1nsc2c(=O)n(CC3CCCCC3)c(C3CC3)cc12)C(F)(F)C(F)(F)F [Example I-022]	100	100	100			
CC(C)c1cc2c(N)nsc2c(=O)n1CC1CCCCC1 [Example I-023, 3-amino-6-(cyclohexylmethyl)-5-isopropyl-isothiazolo[5,4-c]pyridin-7-one]	90	90	100	100	90	100
CC(=O)OCc1cc2c(N)nsc2c(=O)n1CC1CCCCC1 [Example I-027]	90	90	100			
CCCc1cc2c(NC(=O)C(F)(F)C(F)(F)F)nsc2c(=O)n1CC1CCCCC1 [Example I-032]	80	100	80			
CCC(=O)Nc1nsc2c(=O)n(CC3CCCCC3)c(COC)cc12 [Example I-033]	100	100	100			
COCc1cc2c(NC(=O)C(F)(F)C(F)(F)F)nsc2c(=O)n1CC1CCCCC1 [Example I-034]	100	100	100			
CC(=O)OCc1cc2c(NC(=O)C(F)(F)C(F)(F)F)nsc2c(=O)n1CC1CCCCC1 [Example I-035]	80	100	100			
Nc1nsc2c(=O)n(CC3CCCCC3)c(CO)cc12 [Example I-036]	80	90	100	100	100	90
CCC(=O)Nc1nsc2c1CC(CO)N(CC1CCCCC1)C2=O (stereo not drawn) [Example I-044]	100	90	100	100	100	100
CCC(=O)OCc1cc2c(N)nsc2c(=O)n1CC1CCCCC1 [Example I-046]	90	100	100			
C=Cc1cc2c(N)nsc2c(=O)n1CC1CCCCC1 [Example I-051]	100	90	90			
CC(C)Cc1cc2c(NC(=O)C(F)(F)F)nsc2c(=O)n1CC1CCCCC1 [Example I-056]	100	90	90	90	100	90
C#Cc1cn(CC2CCCCC2)c(=O)c2snc(N)c12 [Example I-070]	100	100	100	100	100	100
CC(O)c1cc2c(N)nsc2c(=O)n1CC1CCCCC1 (stereo not drawn) [Example I-072]				100	80	100

Compound	herbicidal effect VIOTR (Viola tricolor [1]) [%]	herbicidal effect SETVI (Setaria viridis [2]) [%]	herbicidal effect AMARE (Amaranthus retroflexus [3]) [%]	herbicidal effect VIOTR (Viola tricolor [4]) [%]	herbicidal effect SETVI (Setaria viridis [5]) [%]	herbicidal effect AMARE (Amaranthus retroflexus [6]) [%]
CCC(=O)N(C(=O)CC)c1nsc2c(=O)n(CC3CCCCC3)cc(Br)c12 [Example I-079]	100	100	100	100	90	100
C=Cc1cn(CC2CCCCC2)c(=O)c2snc(N)c12 [Example I-080]	100	80	80	80	100	100
COC(C)(C)C#Cc1cn(CC2CCCCC2)c(=O)c2snc(N)c12 [Example I-105]	100	100	100			
CCc1cn(CC2CCCCC2)c(=O)c2snc(NC(=O)C(F)(F)C(F)(F)F)c12 [Example I-107]	100	80	100			
COC/C=C/c1cn(CC2CCCCC2)c(=O)c2snc(N)c12 [Example I-108]				100	100	100
CCO/C=C/c1cn(CC2CCCCC2)c(=O)c2snc(N)c12 [Example I-113]				100	100	100
CC#Cc1cn(CC2CCCCC2)c(=O)c2snc(N)c12 [Example I-115]				100	100	100
CCCc1cn(CC2CCCCC2)c(=O)c2snc(N)c12 [Example I-126]				100	80	100
Cc1ccc(-c2cn(CC3CCCCC3)c(=O)c3snc(N)c23)o1 [Example I-132]				90	100	80
C=C(OCC)c1cn(CC2CCCCC2)c(=O)c2snc(N)c12 [Example I-133]	100	90	90			
CO/N=C(/C)c1cn(CC2CCCCC2)c(=O)c2snc(N)c12 [Example I-134]				100	80	100
CCO/N=C(/C)c1cn(CC2CCCCC2)c(=O)c2snc(N)c12 [Example I-141]				100	100	100
CCO/N=C(/C)c1cn(CC2CCCCC2)c(=O)c2snc(N)c12 [Example I-142]				80	100	100
C=CCc1cn(CC2CCCCC2)c(=O)c2snc(N)c12 [Example I-143]				100	100	100
Nc1nsc2c1C(O)CN(CC1CCCCC1)C2=O (stereo not drawn) [Example I-144]	100	90	100			
CC(O)c1cn(CC2CCCCC2)c(=O)c2snc(N)c12 (stereo not drawn) [Example I-147]				100	80	100
CC(=O)c1cn(CC2CCCCC2)c(=O)c2c1C(N)=NS2(=O)=O [Example I-158]	100	80	90			
C/C(=N/OCC1CC1)c1cn(CC2CCCCC2)c(=O)c2snc(N)c12 [Example I-167]	100	100	100			
Nc1nsc2c(=O)n(CC3CCCCC3)cc(C(=O)O)c12 [Example I-170]	90	100	100			
